The results in this text go back to the METLIN SMRT retention time set (Domingo-Almenara et al. 2019).

This data set can be described thus: gradient 5% acetonitrile 3 min, to 50% in 2 min, to 85% in 15 min, held 3 min, 100 µL/min. The settings on record: column: Zorbax Extend-C18 2.1 x 50 mm; eluents: water / acetonitrile, 0.1% formic acid. A digest of the protocol:
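Values are retention times taken from adduct peaks that software picked and an analyst inspected. The pure standards were run as mixtures of ~100 molecules on HPLC linked to a quadrupole time-of-flight mass spectrometer, in positive and negative ionization mode. A Zorbax Extend-C18 column (2.1 × 50 mm, 1.8 μm) was used at 100 μL/min with water and acetonitrile, each including 0.1% formic acid.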
Take `CCCC(=O)N1CCc2c(c(-c3nnc(SC)n3CC)nn2C)C1`: the RP-LC retention time was determined as 705 s.

`CCOC(=O)c1noc2ncnc(Nc3cccc(CC)c3)c12` came in with an RP-LC retention time of 1060 s.

`O=S(=O)(c1ccc(-c2noc(-c3ccccc3F)n2)cc1)N1CCOCC1` came in with an RP-LC retention time of 1030 s.

Turning to `COc1ccc(C2Cn3cnc(C(=O)N4CCC(C(=O)NCC5CCCCC5)CC4)c3CO2)cc1` (centres undefined), the RP-LC retention time came to 821 s.

For `CCC(=O)Nc1cc2c(cc1S(=O)(=O)c1ccccc1)n(CC)c(=O)n2CC`, the RP-LC retention time was 786 s.

Compound `COc1ccc(-c2c(C)noc2NC(C)=O)cc1S(=O)(=O)N1CCC(C)CC1` had an RP-LC retention time of 801 s.

With `CCC1CN(C(=O)N2CCC(C(=O)NCCCN3CCCCC3)CC2)c2ccccc2O1` (centres undefined), the RP-LC retention time stood at 643 s.

`CCCCNC(=O)C(=O)NCC(c1ccc2c(c1)OCO2)N1CCOCC1` (centres undefined): the RP-LC retention time turned out to be 628 s.

Compound `O=C(NCc1ccccc1Cl)C1c2ccccc2CCN1C(=O)C1CC1` (centres undefined) registered an RP-LC retention time of 881 s.

As for `COc1ccc(-c2noc(C3CCCN3C(=O)c3cc(F)cc(F)c3)n2)cc1OC` (centres undefined), the RP-LC retention time is 937 s.

The compound `C=CCN1C(=O)COc2ccc(-c3nc(NC(=O)CCC4CCCCC4)sc3C)cc21` came in with an RP-LC retention time of 1220 s.

`COc1ccc(NC(=O)Cc2csc3nc(-c4cccc(Cl)c4)cn23)cc1OC`: the RP-LC retention time amounted to 831 s.

As to `Cc1nn(C)c2c(=O)n(CC(=O)N3CCN(c4ccccn4)CC3)ccc12`, the RP-LC retention time is 558 s.

In the case of `COc1ccccc1CNC(=O)C1CCN(S(=O)(=O)c2ccc3[nH]c(=O)ccc3c2)CC1`, the RP-LC retention time was 714 s.

Take `CCSc1nc2c(s1)c(=O)n(-c1ccccc1)c(=O)n2CC(=O)NCc1ccccc1`: the RP-LC retention time is 924 s.

As to `O=C(Nc1ccccc1Br)c1n[nH]nc1Nc1ccccc1`, the RP-LC retention time worked out at 1100 s.

As for `COc1ccc(NC(=O)c2cnc3c(c2)c(=O)n(C)c(=O)n3-c2ccc(C)cc2)cc1`, the RP-LC retention time worked out at 900 s.

Compound `COc1cc2c(cc1OC)C(C(=O)N1CCN(c3ccccn3)CC1)C1c3ccccc3CCN1C2=O` (centres undefined) displayed an RP-LC retention time of 590 s.

As for `Cc1ccc(CNC(=O)c2cn(C)nc2S(=O)(=O)N2CCSCC2)cc1`, the RP-LC retention time amounted to 902 s.

`O=C(Nc1ccc(-c2cn3cccnc3n2)cc1)c1cccc(Cl)c1`: the RP-LC retention time came to 664 s.

`OC(COc1ccccc1)CN1CCN(c2ccccc2)CC1` (centres undefined) returned an RP-LC retention time of 724 s.

`CNC(=O)[C@@H]1CN(C(=O)c2sc(C)nc2C)C[C@H]1c1n[nH]c(C)n1` came in with an RP-LC retention time of 559 s.

`Cc1ccc(NC(=O)Nc2nccn(-c3ccc(F)c(F)c3)c2=O)cc1F` showed an RP-LC retention time of 1020 s.

`CC(C)Cc1nc2nccc(-c3ccc(F)cc3)n2n1` had an RP-LC retention time of 886 s.

In turn, `COc1ccc(N2CC(c3noc(-c4ccccc4Cl)n3)CC2=O)cc1OC` (centres undefined) had an RP-LC retention time of 880 s.

`Cc1cccc(S(=O)(=O)N2CCc3c(c(CN4CCCC4)nn3C)C2)c1`: the RP-LC retention time was 810 s.

For the compound `CN1CCCn2cc(S(=O)(=O)NCc3ccc(F)cc3Cl)cc2C1=O`, the RP-LC retention time was determined as 707 s.

Take `COc1cccc(CNC(=O)c2c(C(F)(F)F)nn(C)c2C)c1`: the RP-LC retention time worked out at 722 s.

`Cc1ccn2c(Nc3ccc4c(c3)OCCO4)c(-c3cccc(Cl)c3)nc2c1` displayed an RP-LC retention time of 727 s.

`CSc1ccc(-c2nc3nc(C)cc(C)n3c2Nc2ccccc2)cc1` displayed an RP-LC retention time of 755 s.

Consider `O=C(Cc1ccsc1)N1CCc2cc(-c3csc(C4CC4)n3)ccc21`, for which the RP-LC retention time was found to be 1120 s.

In turn, `COc1ccc(C2Cn3cnc(C(=O)N4CCC(C(=O)NC(C)c5ccccc5)CC4)c3CO2)cc1` (centres undefined) gave an RP-LC retention time of 751 s.

Consider `O=C(NCc1cccnc1)C1CCN(c2nnc3ccc(C(F)(F)F)cn23)CC1`, for which the RP-LC retention time is 536 s.

`Cn1cc(-c2nnc(SCC(=O)N3CCc4ccccc4C3)n2C)c(-c2ccccc2)n1` yielded an RP-LC retention time of 754 s.

Compound `Cc1cc2c(cc1S(=O)(=O)N1CCCC1C(=O)Nc1ccccc1F)OC(C)C(=O)N2` (centres undefined) returned an RP-LC retention time of 809 s.

The compound `CCOC(=O)c1sc(NC(=O)CSc2nccn2C)nc1-c1ccccc1` came in with an RP-LC retention time of 678 s.

In the case of `O=C(COc1ccccc1-c1nnc(-c2ccccc2)o1)NCc1ccc2c(c1)OCO2`, the RP-LC retention time was 1030 s.

In the case of `CCCNC(=O)N(Cc1c(C)nn(-c2ccccc2)c1Oc1ccccc1OC)CC1CCCO1` (centres undefined), the RP-LC retention time is 917 s.

Regarding `O=C(c1ccc(-c2cccnc2)nc1)N1CCN(c2ccccc2)CC1`, the RP-LC retention time amounted to 663 s.

`O=C(NC1CCCC1)c1nc(C(=O)N2CCN(c3ncccn3)CC2)cs1` returned an RP-LC retention time of 759 s.

For the compound `CCOc1ccc(-c2noc(CN3C(=O)COc4ccc(Cl)cc43)n2)cc1`, the RP-LC retention time was determined as 1130 s.

For the compound `Cc1nc(C)c(CCNC(=O)c2ccc(C)c([N+](=O)[O-])c2)s1`, the RP-LC retention time was 614 s.

In turn, `O=C(Nc1cc(-c2cccc(F)c2)no1)C1CCCN(c2ncnc3c2nc2n3CCCCC2)C1` (centres undefined) registered an RP-LC retention time of 991 s.

`Cc1ccc(S(=O)(=O)N2CCOCC2)cc1-c1nnc(-c2ccccc2Cl)o1` came in with an RP-LC retention time of 951 s.

`CCc1cccc(NC(=O)C2CCN(S(=O)(=O)c3ccc4c(c3)CCCC(=O)N4)CC2)c1`: the RP-LC retention time came out at 735 s.

On to `CSc1ccc(NC(=O)C2CCCN(c3cnc4nc(C)c(C)nc4c3)C2)cc1` (centres undefined), for which the RP-LC retention time is 819 s.

Take `Cc1ccc(-c2nc(C)c(C(=O)NC(C)C)s2)cc1`: the RP-LC retention time turned out to be 949 s.

With `CN1C(=O)c2cccn2CC1CNS(=O)(=O)Cc1ccccc1` (centres undefined), the RP-LC retention time is 678 s.

`Cc1ccn2cc(-c3ccc(NC(=O)c4ccccc4I)cc3)nc2n1` had an RP-LC retention time of 656 s.

`CCOc1ccc(NC(=O)Cn2c(C)nc3cc4c(cc32)OCCO4)cc1`: the RP-LC retention time was determined as 658 s.

`O=C(N[C@H]1C[C@@H]2C[C@H]1N(C(=O)COc1cccc(Cl)c1)C2)c1ccccc1` gave an RP-LC retention time of 829 s.

The compound `Cc1ccc(Nc2c(-c3ccc(C(=O)O)cc3)nc3cnccn23)c(C)c1` registered an RP-LC retention time of 928 s.

`O=C1CC(C(=O)N2CCCC2)CN1CCc1c[nH]c2ccc(Cl)cc12` (centres undefined) yielded an RP-LC retention time of 731 s.

Compound `Cc1nc(-c2cccc(N3CC(C(=O)N4CCCc5ccccc54)CC3=O)c2)no1` (centres undefined) yielded an RP-LC retention time of 783 s.

On to `Cc1sc(-c2cc(C(F)(F)F)[nH]n2)cc1S(=O)(=O)N1CCN(c2ccc(Cl)cc2)CC1`, for which the RP-LC retention time is 1180 s.

In the case of `Cc1ccc(NC(=O)N2CCCC(C)(C(=O)NCc3ccccc3C)C2)cc1` (centres undefined), the RP-LC retention time worked out at 942 s.

As to `CCOc1cccc(CN2CCc3nc(N4CCN(c5ccccc5F)CC4)ncc3C2)c1`, the RP-LC retention time was found to be 852 s.

Turning to `Cn1cc2c3c(cccc31)CN(C(=O)Nc1ccc(Cl)cc1F)CC2`, the RP-LC retention time came out at 1250 s.

In turn, `O=C(Oc1ccccc1)N1CCC(CNS(=O)(=O)/C=C/c2ccccc2)CC1` yielded an RP-LC retention time of 912 s.

In the case of `O=C(Cc1cc(-c2ccc3c(c2)OCCO3)on1)N1CCN(C(=O)c2ccco2)CC1`, the RP-LC retention time stood at 680 s.

`CCc1ccc2nc(C)cc(C(=O)NC)c2c1` showed an RP-LC retention time of 568 s.

As for `CS(=O)(=O)N1CCC(C(=O)NCCC2=CCCCC2)Oc2ccc(Cl)cc21` (centres undefined), the RP-LC retention time worked out at 1020 s.

Compound `c1ccc(-c2nc3ncc4c(n3n2)CCC4)cc1` registered an RP-LC retention time of 756 s.

For `Cc1c(Cc2ccccc2)[n+](=O)c2ccccc2n1[O-]`, the RP-LC retention time worked out at 1020 s.

With `Cc1cccc(CC(=O)N2C[C@@H]3C[C@H](NS(C)(=O)=O)[C@H]2C3)c1`, the RP-LC retention time was determined as 662 s.

`COCCN1C(=O)[C@H]2CN(C(=O)Nc3ccccc3)C[C@H]2C1=O`: the RP-LC retention time turned out to be 732 s.

Take `O=S(=O)(c1cc(-c2nnc(-c3ccc(F)cc3)o2)ccc1Cl)N1CCCCC1`: the RP-LC retention time came to 1190 s.

Regarding `CCCCOc1ccc(NC(=O)NCCN2CCN(S(C)(=O)=O)CC2)cc1`, the RP-LC retention time was 600 s.

The compound `Cc1cc(C)n(-c2ccnc(NCCc3cccnc3)n2)n1` yielded an RP-LC retention time of 584 s.

As for `CCOc1ccccc1-n1ccn(Cc2nc(-c3ccc(C(C)(C)C)cc3)no2)c(=O)c1=O`, the RP-LC retention time amounted to 699 s.

For `Cc1cnn(Cc2nc(-c3ccc(NC(=O)c4sccc4C)cc3)oc2C)c1`, the RP-LC retention time came out at 938 s.

Turning to `Cc1nc2c(c(=O)n1CC(=O)NCc1ccccc1Br)CCN(Cc1ccccc1)C2`, the RP-LC retention time is 650 s.

`COC(=O)c1cnc(N2CCN(c3ccc(F)cc3)CC2)c2ccccc12` came in with an RP-LC retention time of 1190 s.

In the case of `COc1ccccc1CNC(=O)C1CCCN(C(=O)c2cc3sccc3n2C)C1` (centres undefined), the RP-LC retention time was 852 s.

`Cc1cc(NC(=O)c2nc3ccccc3s2)n(C(C)C)n1` gave an RP-LC retention time of 806 s.

As for `Cc1[nH]c(C(=O)Nc2cccc(Cl)c2)c(C)c1S(=O)(=O)N1CCCC1`, the RP-LC retention time worked out at 943 s.

`CCOc1ccccc1-c1nc(Cn2cnc3onc(C)c3c2=O)c(C)o1` yielded an RP-LC retention time of 928 s.

Compound `Cc1ccc(-n2c(=O)n(CC(=O)NCCN3CCN(C)CC3)c3cccnc32)cc1` gave an RP-LC retention time of 589 s.

`S=C(NCc1ccc2c(c1)OCO2)N1CCN(c2ncnc3c2oc2ccccc23)CC1` came in with an RP-LC retention time of 875 s.
